In one test the test system is HEK293. In words: Inhibition of mouse GAT4-mediated [3H]GABA uptake expressed in human HEK cells assessed as specific binding remaining at 100 µM.
Conditions: not given
For the compound `O=C(O)c1ccc2[nH]cnc2c1`, the Activity worked out at 67.8%. `O=C(O)c1cccc2[nH]cnc12`: the Activity is 68.2%.

The target in the next test is Sodium- and chloride-dependent GABA transporter 1 (Mus musculus, UniProt P31648).
Test: not given
To be noted: read-out: IC50. The class given is cell-based, HEK293.
`Cc1ccsc1C(=CCCN(C)C1CCCc2onc(O)c21)c1sccc1C` (stereo unspecified): the IC50 was 4 µM. Still for that read-out and setting: the same measure for `COc1ccc(C2(O)CCN(CCCn3c4ccccc4c4ccccc43)CC2)cc1`: 19 µM.

The same test, now with this note: read-out: pIC50 (converted).
Take `O=C(O)/C=C/CCc1c[nH]cn1`: the IC50 is 123 µM. On the same count and under the same terms, the same measure for `O=C(O)CCCc1c[nH]cn1`: 417 µM. On to `NCCC(=O)O` [BETA-ALANINE], for which the IC50 was 2570 µM. Consider `O=C(O)CCCn1ccnc1`, for which the IC50 was 117 µM.

As for `O=C(O)CCCCc1ncc[nH]1`, the IC50 is 724 µM.

As to `O=C(O)Cc1c[nH]cn1` [IMIDAZOLE ACETIC ACID], the IC50 is 617 µM. In the case of `O=C(O)CCCCc1c[nH]cn1`, the IC50 is 417 µM.

On to `O=C(O)CCCCCCn1ccnc1`, for which the IC50 was 676 µM. For the compound `O=C(O)CCCCCn1ccnc1`, the IC50 was 1020 µM. On the same count and under the same terms, the value for `O=C(O)/C=C/CCc1ncc[nH]1` was 324 µM. On the same count and under the same terms, the same measure for `O=C(O)CCCCn1ccnc1`: 115 µM.

The target in a further test is Sodium- and chloride-dependent GABA transporter 1 (Mus musculus) (UniProt P31648). The experiment in a line: Inhibition of mouse GAT1-mediated [3H]GABA uptake expressed in human HEK cells assessed as specific binding remaining at 100 µM. To be noted: HEK293.
With `O=C(O)c1ccc2[nH]cnc2c1`, the Activity was 108%. `O=C(O)c1cccc2[nH]cnc12`: the Activity stood at 95.9%.

Another test deals with HEK293. In words: Inhibition of mouse GAT4-mediated [3H]GABA uptake expressed in human HEK cells assessed as specific binding remaining at 1 mM.
Conditions: not given
The class given is cell-based.
In the case of `O=C(O)/C=C/c1ncc[nH]1`, the Activity is 47.2%. Consider `O=C(O)C1CCCc2[nH]cnc21` (stereo unspecified), for which the Activity is 81.6%. On to `O=C(O)c1c[nH]cn1`, for which the Activity worked out at 85.5%. On the same count and under the same terms, the same measure for `NCCCCCCC(=O)O`: 84.3%. Turning to `O=C(O)CCCCCCCn1ccnc1`, the Activity was 58.6%. Turning to `O=C(O)/C=C\c1ncc[nH]1`, the Activity is 93.6%. On the same count and under the same terms, the value for `O=C(O)c1ncc[nH]1` was 98.6%; that for `O=C(O)C1CCc2[nH]cnc2C1` (stereo unspecified) was 82.4%; that for `O=C(O)CCCCc1c[nH]cn1` was 64.7%.

Take `O=C(O)CCCCCCn1ccnc1`: the Activity was 71.1%. With `O=C(O)/C=C/c1c[nH]cn1`, the Activity amounted to 95.8%. On the same count and under the same terms, the value for `O=C(O)Cc1ncc[nH]1` was 63.4%; that for `NCCCCCC(=O)O` was 65.1%.

System in a further test: not listed separately
In words: cells. In kind it is cell-based. Particulars: HEK293, 3 h; read-out: IC50.
With `Cc1ccsc1C(=CCCN(C)C1CCCc2onc(O)c21)c1sccc1C` (stereo unspecified), the IC50 is over 300 µM. Still for that read-out and setting: the same measure for `COc1ccc(C2(O)CCN(CCCn3c4ccccc4c4ccccc43)CC2)cc1`: 15 µM.

Turning to `COc1ccc(C(OCCN2CCC[C@H](C(=O)O)C2)(c2ccc(OC)cc2)c2ccc(OC)cc2)cc1`, the IC50 came out at 3 µM.

The test is the same for the next values; noted with them: HEK293, 3 h; read-out: pIC50 (converted).
Consider `O=C(O)CCCc1ncc[nH]1`, for which the IC50 is 513 µM. For the compound `O=C(O)/C=C/CCc1c[nH]cn1`, the IC50 was 209 µM. Still for that read-out and setting: the same measure for `O=C(O)CCc1ncc[nH]1`: 309 µM; for `O=C(O)CCc1c[nH]cn1`: 81.3 µM; for `O=C(O)CCCc1c[nH]cn1`: 52.5 µM. Regarding `O=C(O)Cn1ccnc1`, the IC50 was 617 µM. On the same count and under the same terms, the same measure for `NCCC(=O)O` [BETA-ALANINE]: 34.7 µM; for `O=C(O)CCCn1ccnc1`: 38 µM.

Turning to `O=C(O)CCCCc1ncc[nH]1`, the IC50 was 437 µM. As to `O=C(O)CCn1ccnc1`, the IC50 was 191 µM. For the compound `O=C(O)Cc1c[nH]cn1` [IMIDAZOLE ACETIC ACID], the IC50 is 46.8 µM. On the same count and under the same terms, the same measure for `NCC(=O)O` [GLYCINE]: 3090 µM.

`O=C(O)CCCCCn1ccnc1`: the IC50 was 234 µM. Still for that read-out and setting: the value for `NCCCCC(=O)O` [5-AMINOVALERIC ACID] was 501 µM. The same measure, in the same setting: the same measure for `O=C(O)/C=C/CCc1ncc[nH]1`: 309 µM; for `O=C(O)CCCCn1ccnc1`: 224 µM.

The target in a further test is Sodium- and chloride-dependent GABA transporter 1 (Mus musculus) (UniProt P31648). The experiment in a line: Inhibition of mouse GAT1-mediated [3H]GABA uptake expressed in human HEK cells assessed as specific binding remaining at 1 mM. The class given is cell-based. To be noted: HEK293.
With `O=C(O)CCCc1ncc[nH]1`, the Activity was 62.3%.

As for `O=C(O)/C=C/c1ncc[nH]1`, the Activity came out at 73.3%. On the same count and under the same terms, the value for `O=C(O)CCc1ncc[nH]1` was 62.8%; that for `O=C(O)C1CCCc2[nH]cnc21` (stereo unspecified) was 59%; that for `O=C(O)CCc1c[nH]cn1` was 61.7%. `O=C(O)c1c[nH]cn1`: the Activity was 90.8%. Take `O=C(O)Cn1ccnc1`: the Activity is 73.3%.

Consider `O=C(O)CCCCCCCn1ccnc1`, for which the Activity was 68.3%. On to `O=C(O)CCn1ccnc1`, for which the Activity is 72%.

With `O=C(O)/C=C\c1ncc[nH]1`, the Activity turned out to be 102%.

Take `O=C(O)C1CCc2[nH]cnc2C1` (stereo unspecified): the Activity came to 85%. Consider `O=C(O)/C=C/c1c[nH]cn1`, for which the Activity amounted to 54.8%.

Regarding `O=C(O)Cc1ncc[nH]1`, the Activity amounted to 75.3%.

Another test concerns the target T1, GABA transporter 3 (Mus musculus) (UniProt P31649).
T1 sequence (whole entry): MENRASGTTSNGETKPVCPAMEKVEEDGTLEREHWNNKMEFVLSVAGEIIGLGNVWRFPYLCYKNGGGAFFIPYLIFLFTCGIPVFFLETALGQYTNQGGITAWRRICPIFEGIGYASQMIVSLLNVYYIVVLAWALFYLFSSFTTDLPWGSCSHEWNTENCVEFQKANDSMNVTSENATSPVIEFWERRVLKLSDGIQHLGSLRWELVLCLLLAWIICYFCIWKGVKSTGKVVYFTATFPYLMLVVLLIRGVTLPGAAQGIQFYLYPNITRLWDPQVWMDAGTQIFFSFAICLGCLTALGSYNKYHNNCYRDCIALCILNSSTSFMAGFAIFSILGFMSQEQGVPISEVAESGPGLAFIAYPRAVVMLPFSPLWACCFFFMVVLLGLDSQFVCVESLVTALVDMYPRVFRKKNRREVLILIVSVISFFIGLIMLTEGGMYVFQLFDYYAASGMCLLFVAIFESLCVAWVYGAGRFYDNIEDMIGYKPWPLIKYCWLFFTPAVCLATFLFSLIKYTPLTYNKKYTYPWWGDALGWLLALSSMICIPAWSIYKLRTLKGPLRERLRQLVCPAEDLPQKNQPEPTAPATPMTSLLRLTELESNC
In words: Inhibition of mouse GAT2-mediated [3H]GABA uptake expressed in human HEK cells assessed as specific binding remaining at 100 µM. To be noted: HEK293.
Regarding `O=C(O)c1ccc2[nH]cnc2c1`, the Activity was 74.2%. `O=C(O)c1cccc2[nH]cnc12`: the Activity stood at 94.2%.

Another test deals with T2, GABA transporter 4 (Mus musculus) (UniProt P31650).
T2 sequence (whole entry): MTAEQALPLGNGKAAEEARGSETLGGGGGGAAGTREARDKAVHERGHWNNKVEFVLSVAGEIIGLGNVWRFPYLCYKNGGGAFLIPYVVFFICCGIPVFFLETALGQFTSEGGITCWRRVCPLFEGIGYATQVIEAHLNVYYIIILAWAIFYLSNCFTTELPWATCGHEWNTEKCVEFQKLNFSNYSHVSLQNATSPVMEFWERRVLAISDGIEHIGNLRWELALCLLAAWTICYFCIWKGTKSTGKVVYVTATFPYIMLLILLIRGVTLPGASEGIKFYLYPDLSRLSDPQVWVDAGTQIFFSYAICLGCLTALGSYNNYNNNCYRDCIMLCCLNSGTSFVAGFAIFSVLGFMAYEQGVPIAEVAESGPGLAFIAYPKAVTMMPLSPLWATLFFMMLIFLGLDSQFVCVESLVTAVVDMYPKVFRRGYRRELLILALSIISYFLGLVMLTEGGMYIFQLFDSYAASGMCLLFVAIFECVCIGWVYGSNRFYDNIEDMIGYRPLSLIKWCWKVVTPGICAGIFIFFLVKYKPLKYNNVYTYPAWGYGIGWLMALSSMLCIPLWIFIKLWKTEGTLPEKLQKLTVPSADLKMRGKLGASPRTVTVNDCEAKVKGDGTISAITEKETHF
The experiment in a line: Inhibition of mouse GAT3-mediated [3H]GABA uptake expressed in human HEK cells assessed as specific binding remaining at 100 µM. Particulars: HEK293.
Take `O=C(O)c1ccc2[nH]cnc2c1`: the Activity is 103%. On to `O=C(O)c1cccc2[nH]cnc12`, for which the Activity turned out to be 78.2%.

These data come from ChEMBL document CHEMBL1773002, “Development of imidazole alkanoic acids as mGAT3 selective GABA uptake inhibitors” (Eur J Med Chem, 2011).
